Assay results reported in PubChem BioAssay (NCI).
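Step 1: Grow cells in 96-well plates. Step 2: Expose to compound for 48 hours at 5 concentrations. Step 3: Interpolate endpoints linearly; if unreached, use highest concentration. Here, GI50 denotes the concentration required for 50% inhibition of growth. At the TGI there is no net growth.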

Assays:
Assay in all cases: NCI-60 cell line screen, 48 h
[1] = tested on: SNB-19 CNS
[2] = tested on: SK-MEL-5 melanoma
[3] = tested on: PC-3 prostate
[4] = tested on: TK-10 renal
[5] = tested on: KM12 colon
[6] = tested on: T-47D breast
[7] = tested on: RXF 393 renal
[8] = tested on: HL-60(TB) leukemia

Structure (SMILES)	GI50 [1] [µM]	TGI [1] [µM]	GI50 [2] [µM]	TGI [2] [µM]	GI50 [3] [µM]	TGI [3] [µM]	GI50 [4] [µM]	TGI [4] [µM]	GI50 [5] [µM]	TGI [5] [µM]	GI50 [6] [µM]	TGI [6] [µM]	GI50 [7] [µM]	TGI [7] [µM]	GI50 [8] [µM]	TGI [8] [µM]
COc1cc(C)ccc1C(=O)c1ccc(C)cc1OC	7.31	> 100	2.99	24.6	4.08	> 100	9.15	> 100	0.926	> 100	4.67	> 100	1.66	4.53		
C=C1CCC2C3(C)COC(C)(C)OC3CCC2(C)C1C/C=C1/C(=O)OCC1OC(C)=O (stereo not given)	15.6	29	4.8	16.4	10.2	26.2	5.24	16.3	3.88	13.4	2.96	11.5	1.6	3.32	2.55	7.14
CC(=O)c1c(C(F)(F)F)n([O-])c2ccccc2[n+]1=O	4.77	18.5	0.494	1.87	1.3	10.8	1.2	5.59	1.19	3.43	0.748	4.02	1.57	6.03		
O=C(Oc1cccnc1)c1cccnc1Nc1ccnc(C(F)(F)F)c1	48.9	> 100	6.99	63.4	7.03	56.1	17.2	> 100	4.01	18.2	36.3	> 100	21.3	80.4		
CNC(=S)Nc1ccc(OC)c2ccccc12		> 10		> 10		> 10		> 10		> 10		> 10				> 10
COc1ccc2c(c1)C(=O)/C(=C/c1cccc(OCC(=O)c3ccccc3)c1)CC2	39.6	> 100	4.14	16.5	4.92	> 100	> 100	> 100	6.92	> 100	7.05	> 100	0.0502	8.05	2.18	5.16
CO/N=C(\COc1ccc2c(c1)[nH]c1ccccc12)c1ccc(OC)cc1	24.4	> 100	15.7	> 100	18.3	> 100	13.6	66.7	> 100	> 100	> 100	> 100	15.8	> 100	62.2	> 100
CCc1c2c(nc3ccc(OCc4ccc(B(O)O)cc4)cc13)-c1cc3c(c(=O)n1C2)COC(=O)[C@]3(O)CC	< 0.01	> 39.6	0.0244	0.173	0.164	> 75.5	0.226		0.15	> 51.9	< 0.01	> 21.1	0.0232	0.142	0.0353	> 100
CC(=O)Nc1ccc(-c2cc(C(=O)O)c3cc4ccccc4cc3n2)cc1		> 100		> 100		> 100		> 100		> 100		> 100		> 100		> 100
N#C[Se]Cc1cc(-c2ccccc2)n(-c2ccc(S(N)(=O)=O)cc2)n1	0.587	1.88			0.711	3.56	2.35	7.83	0.881	3.22	2.19	7.28	0.542	1.92	0.939	3.87
Cc1c2cnccc2c(C)c2c1c1cc(C#N)ccc1n2C	0.181	1.94	0.224	0.591	0.217	1.11	0.266	1.62	0.243	1.98	0.303		0.128	0.393	0.401	1.77
COc1ccc(-c2noc(C(=O)O)c2-c2cc(OC)c(OC)c(OC)c2)cc1	6.75	> 100	1.3	> 100	1.33	> 100	> 100	> 100	0.595	> 100			1.94	6.56	2.19	6.41
C/C(=N/O)c1cccc(Nc2cc(-n3nnc4ccccc43)nc3ccccc23)c1	25.7	> 100	3.78	13.7	8.87	33.5	13.6	50.2	9.48	28.4	34.6	> 85.3	14.7	43	13.1	49.9
O=S(=O)(Nc1ccc(Br)cc1)c1ccc(-c2cnc(C3CC3)o2)cc1	3.98	18.3	2.49	11.6	2.67	15.5	5.36	21.5	1.13	17.5	2.84	16.9	1.61	7.6	1.47	6.41
FC(F)(F)c1cccc(-c2nc3nc(Cl)c(Cl)nc3[nH]2)c1		> 59.2		3.16		9.37		> 76.1		11		12.9		27		4.7
COc1cc(/C=C/C(=O)/C=C/c2cc(OC)c3c(c2)OCO3)cc2c1OCO2	10.3	> 100	5.59	> 100	72.2	> 100	30.3	> 100	1.98	4.07	9.62	> 100	2.65	6.57	63.4	> 100
CCN1C(=O)N(CC)C2C1NN=c1s/c(=C\c3ccc(Cl)cc3Cl)c(=O)n12 (stereo not given)	0.0503	> 100	0.0247	0.0763	0.0408	> 53.4	13.4	59.3	0.0274	> 32.6	15.7	99.3	0.0327	14.7	0.0227	0.0534
O=C(c1ccc2ccccc2c1)c1c(C(F)(F)F)n([O-])c2ccc(C(F)(F)F)cc2[n+]1=O	1.76	3.2	0.927	2.37	0.407	1.42	1.67	3.07	0.961	2.39	0.755	2.31	0.974	2.54	0.639	2.2
N#CC(C#N)=C/C=C(\Cl)c1ccc(Cl)cc1	18.5	> 55.2	3.13	11.5	8.62	> 46.2	4.66	19.2	15	44.1	13.8	49.1	7.63	34.9		

Structure (SMILES)	GI50 [1] [µM]	TGI [1] [µM]	GI50 [2] [µM]	TGI [2] [µM]	GI50 [3] [µM]	TGI [3] [µM]	GI50 [4] [µM]	TGI [4] [µM]	GI50 [5] [µM]	TGI [5] [µM]	GI50 [6] [µM]	TGI [6] [µM]	GI50 [7] [µM]	TGI [7] [µM]	GI50 [8] [µM]	TGI [8] [µM]
C=CCc1c(Cl)nc(Cl)nc1Cl		2.21		0.301		2.92		3.35		0.888		0.979		0.601		> 100
O=C(O)c1nc(NCc2nc3cc(Cl)ccc3o2)n[nH]1	> 100	> 100	> 100	> 100	> 100	> 100	> 100	> 100	> 100	> 100	> 100	> 100	> 100	> 100	> 100	> 100
c1ccc(-c2nc(-c3ccccn3)nc(-c3ccccn3)n2)nc1	> 100	> 100	17.2	47.1	48.1	> 100	45.5	> 100	32.4	> 100	7.85	> 100	> 100	> 100	38.2	> 100
COc1ccc(C2=Nn3c(nnc3-c3cc(Cl)cc(Cl)c3Cl)SC2)cc1	0.402	55.1	0.273		0.687	> 100	2.26	> 53.9	0.384	8.89					0.461	2.03
CC1=C([Se]CC(OC(=O)CC[Se]c2ccccc2)C(=O)NC(C)(C)C)C(=O)c2ccccc2C1=O (stereo not given)	0.638	2.05	1.82	3.27	1.48	2.8	1.99	3.62	1.59	3.2	1.68	3.88			1.07	2.92
c1ccc(C2ONC3=NCCN32)cc1 (stereo not given)	> 100	> 100	0.995	49.6	18.8	78.2	> 100	> 100	51.3	> 100	44	> 100	82.9	> 100		
N=C1C(O)C2(I)c3ccccc3N3C(=N)C(O)C4c5ccccc5N1C4C32 (stereo not given)		> 100		> 100		> 100		> 100		34.8		> 100		> 100		79.4
C1CSCCCSCCCSCCCSCCCSCCCSCCCSCCCSC1		> 100		> 100		> 100		> 100		> 100		> 100		> 100		> 100
Nc1ncn([C@@H]2S[C@H](CO)[C@@H](O)[C@@H]2F)c(=O)n1	0.662	> 100	0.827	> 100		> 100	> 100	> 100	21.4	> 100	> 100	> 100	7.31	> 100	0.571	> 31.5
c1ccc(NN(Cc2cnccn2)c2ccccc2)cc1		> 100		> 100		> 100		> 100		> 100		> 100		> 100		> 100
CN(C)CCNC(=O)Cn1ccc(=O)c2cc([N+](=O)[O-])ccc21		> 100		> 100		> 100		> 100		> 100		> 100		> 100		> 100
Clc1ccc(-c2cn3ccnc3c(-c3ccc(Cl)cc3)n2)cc1	45.8	> 100	16.6	43.5	19.6	> 100	22.6	73.5	5.33	37.9			3.57	> 100	0.954	19
CCSCCCSCCSCC		> 100		> 100		> 100		> 100		> 100		> 100				> 100
Cc1nc(C(N)=O)c(N)n1CCN1CCN(C(=O)CCCCCCCCCCNC2N=CNc3nc[nH]c32)CC1 (stereo not given)		> 100						> 100		> 100						60.8
Oc1cccc(Nc2nc3ccccc3c3occc23)c1	10.5	22.2	14	27	8.59	21	5.21	12.2	3.24	13		21.2			5.22	61.7
O=C1OCC2=C1C(c1cccc(F)c1)c1cc3c(cc1N2CCO)OCO3 (stereo not given)	3	> 50	1.26	> 50	1.46	> 50	15.6	> 50	1.48	> 50	2.18	> 50	1.51	4.96		
CC(=O)c1c(O)c(C)c(O)c(Cc2c(O)c3c(c(C(=O)/C=C/c4ccccc4)c2O)OC(C)(C)C=C3)c1O		19.4		5.75		5.18		> 100		16.7		7.89				26.2
CCOC(=O)Oc1c(OC)cc(C(=O)c2ccc(OC)c(O)c2OC)cc1OC	0.821	> 100	0.475	55.6	0.562	> 100	> 100	> 100	0.52	> 100						
